Drawing on patent US20120101093A1, “SUBSTITUTED IMIDAZO[1,2-A]PYRIDINE DERIVATIVES, PHARMACEUTICAL COMPOSITIONS, AND METHODS OF USE AS BETA-SECRETASE INHIBITORS” (HIGH POINT PHARMACEUTICALS, LLC, priority 2009, published 2012), this text covers IC50 and EC50 for 22 compounds.

Each structure is given as a SMILES string.

In one experiment the target is T1, BACE-1 enzyme (Homo sapiens, UniProt P56817).
T1 construct: purchased R & D Systems 931AS
Description: BACE Fluorescence Resonance Energy Transfer (FRET) Assay. It counts as biochemical. The following applies: pH 4-4.5, 30 min pre-incubation, about 1.5 hours reaction. The method, boiled down: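 Fluorescence (ex 540, em 585 nm) after ~1.5 h room-temperature cleavage of a quenched rhodamine peptide tracks BACE-1 activity. Enzyme and compound first sit 30 min in pH 4-4.5 acetate buffer with CHAPS, Triton X-100, EDTA, 7.5% DMSO. Values given as IC50 or % inhibition.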

Experiment [1] deals with Aβ1-40 secreted from HEK293 cells stably expressing wildtype human APP695 protein (HEK-APPwt cells). Nature of the experiment: Aβ Cell Based Assay (Aβ1-40 secretion, ELISA). The following applies: Homo sapiens, HEK293, 6 h, 6 hours incubation, reduction of Aβ1-40 secretion. The procedure, abridged:
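Cells in DMEM with 2% FBS exposed to ten compound concentrations for 6 h at 37 °C. Secreted Aβ1-40 in supernatant quantified by sandwich ELISA (82E1 capture, TMB, OD450). EC50 from percent inhibition, DAPT defining 100% inhibition, non-linear fit.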
On the technique in general: An ELISA detects its analyte on a solid surface through an enzyme-linked reagent.

T1 sequence (P56817 46-457 limits assumed): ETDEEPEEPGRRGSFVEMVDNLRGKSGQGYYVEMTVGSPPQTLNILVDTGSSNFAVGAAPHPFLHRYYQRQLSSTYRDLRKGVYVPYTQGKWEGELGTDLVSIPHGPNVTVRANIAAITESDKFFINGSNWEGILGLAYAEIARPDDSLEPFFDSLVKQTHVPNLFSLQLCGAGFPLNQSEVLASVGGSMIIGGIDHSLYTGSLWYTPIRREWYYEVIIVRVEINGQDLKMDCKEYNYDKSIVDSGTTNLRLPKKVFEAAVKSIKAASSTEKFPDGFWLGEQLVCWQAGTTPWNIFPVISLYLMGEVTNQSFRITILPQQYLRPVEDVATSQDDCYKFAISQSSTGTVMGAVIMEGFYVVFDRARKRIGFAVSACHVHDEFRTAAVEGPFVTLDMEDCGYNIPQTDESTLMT

As a reminder, the IC50 is the point on the concentration scale where inhibition reaches its midpoint. The low end stands for inhibition by little substance, the high end for a need for much substance. In general, EC50 refers to the concentration giving half of the maximal effect. A higher EC50 goes with a need for much substance. On BACE-1 enzyme, `O=C(Nc1nc2cc(-c3cccc(C(F)(F)F)c3)ccc2[nH]1)c1cn2cc(CN3CCOCC3)ccc2n1` [Example 182, 6-Morpholin-4-ylmethyl-imidazo[1,2-a]pyridine-2-carboxylic acid [5-(3-trifluoromethyl-phenyl)-1H-benzoimidazol-2-yl]-amide] returned an IC50 of 0.46 µM. The EC50 in experiment [1] was determined as 0.54 µM.

On BACE-1 enzyme, `CC(C)CN(C)Cc1ccc2nc(C(=O)Nc3nc4cc(-c5cccc(C(F)(F)F)c5)ccc4[nH]3)cn2c1` [Example 184, 6-[(Isobutyl-methyl-amino)-methyl]-imidazo[1,2-a]pyridine-2-carboxylic acid [5-(3-trifluoromethyl-phenyl)-1H-benzoimidazol-2-yl]-amide] had an IC50 of 0.83 µM. The same compound yielded an EC50 in experiment [1] of 4.32 µM.

In turn, `CN(Cc1ccccc1)Cc1ccc2nc(C(=O)Nc3nc4cc(-c5cccc(C(F)(F)F)c5)ccc4[nH]3)cn2c1` [Example 185, 6-[(Benzyl-methyl-amino)-methyl]-imidazo[1,2-a]pyridine-2-carboxylic acid [5-(3-trifluoromethyl-phenyl)-1H-benzoimidazol-2-yl]-amide] came in with an IC50 against BACE-1 enzyme of 0.62 µM. This compound also had a concentration for a half-maximal effect (EC50) in experiment [1] of 1.93 µM.

As for `CCN(C)Cc1ccc2nc(C(=O)Nc3nc4cc(-c5cccc(C(F)(F)F)c5)ccc4[nH]3)cn2c1` [Example 188, 6-[(Ethyl-methyl-amino)-methyl]-imidazo[1,2-a]pyridine-2-carboxylic acid [5-(3-trifluoromethyl-phenyl)-1H-benzoimidazol-2-yl]-amide], the 50% inhibitory concentration (IC50) on BACE-1 enzyme amounted to 0.69 µM. The compound further gave an EC50 in experiment [1] of 3.6 µM.

`O=C(Nc1nc2cc(-c3cccc(C(F)(F)F)c3)ccc2[nH]1)c1cn2cccc(CO)c2n1` [Example 192, 8-Hydroxymethyl-imidazo[1,2-a]pyridine-2-carboxylic acid [5-(3-trifluoromethyl-phenyl)-1H-benzoimidazol-2-yl]-amide] returned an IC50 against BACE-1 enzyme of 0.4 µM. A half-maximal response in experiment [1] (EC50) required 2.56 µM.

In the case of `CN1CCN(Cc2cccn3cc(C(=O)Nc4nc5cc(-c6cccc(C(F)(F)F)c6)ccc5[nH]4)nc23)CC1` [Example 194, 8-(4-Methyl-piperazin-1-ylmethyl)-imidazo[1,2-a]pyridine-2-carboxylic acid [5-(3-trifluoromethyl-phenyl)-1H-benzoimidazol-2-yl]-amide], half-maximal inhibition at BACE-1 enzyme (IC50) was put at 0.87 µM. Besides, a half-maximal effect in experiment [1] (EC50) was put at 6.27 µM.

`CNCc1cccn2cc(C(=O)Nc3nc4cc(-c5cccc(C(F)(F)F)c5)ccc4[nH]3)nc12` [Example 196, 8-Methylaminomethyl-imidazo[1,2-a]pyridine-2-carboxylic acid [5-(3-trifluoromethyl-phenyl)-1H-benzoimidazol-2-yl]-amide] showed a half-maximal inhibitory concentration (IC50) against BACE-1 enzyme of 0.45 µM. In addition, the EC50 in experiment [1] stood at 5.96 µM.

As to `CN(C)Cc1cccn2cc(C(=O)Nc3nc4cc(-c5cccc(C(F)(F)F)c5)ccc4[nH]3)nc12` [Example 197, 8-Dimethylaminomethyl-imidazo[1,2-a]pyridine-2-carboxylic acid [5-(3-trifluoromethyl-phenyl)-1H-benzoimidazol-2-yl]-amide], on BACE-1 enzyme, the IC50 came to 0.7 µM. The compound further had an EC50 in experiment [1] of 0.76 µM.

As for `CC(C)CN(C)Cc1cccn2cc(C(=O)Nc3nc4cc(-c5cccc(C(F)(F)F)c5)ccc4[nH]3)nc12` [Example 199, 8-[(Isobutyl-methyl-amino)-methyl]-imidazo[1,2-a]pyridine-2-carboxylic acid [5-(3-trifluoromethyl-phenyl)-1H-benzoimidazol-2-yl]-amide], the IC50 against BACE-1 enzyme was 0.94 µM. Further, the concentration for a half-maximal effect (EC50) in experiment [1] came out at 5.34 µM.

For `O=C(Nc1nc2cc(-c3cccc(C(F)(F)F)c3)ccc2[nH]1)c1cn2ccc(CN3CCOCC3)cc2n1` [Example 201, 7-Morpholin-4-ylmethyl-imidazo[1,2-a]pyridine-2-carboxylic acid [5-(3-trifluoromethyl-phenyl)-1H-benzoimidazol-2-yl]-amide], half-maximal inhibition against BACE-1 enzyme (IC50) required 0.97 µM. This compound came in with an EC50 in experiment [1] of 0.87 µM.

`CN(C)Cc1ccn2cc(C(=O)Nc3nc4cc(-c5cccc(C(F)(F)F)c5)ccc4[nH]3)nc2c1` [Example 202, 7-Dimethylaminomethyl-imidazo[1,2-a]pyridine-2-carboxylic acid [5-(3-trifluoromethyl-phenyl)-1H-benzoimidazol-2-yl]-amide]: the IC50 against BACE-1 enzyme was 0.9 µM. In experiment [1], this compound registered a concentration for a half-maximal effect (EC50) of 4.54 µM.

Take `O=C(Nc1nc2cc(-c3cccc(C(F)(F)F)c3)ccc2[nH]1)c1cn2ccc(CNCc3ccncc3)cc2n1` [Example 204, 7-{[(Pyridin-4-ylmethyl)-amino]-methyl}-imidazo[1,2-a]pyridine-2-carboxylic acid [5-(3-trifluoromethyl-phenyl)-1H-benzoimidazol-2-yl]-amide]: the half-maximal inhibitory concentration (IC50) on BACE-1 enzyme came out at 0.47 µM. The response in experiment [1] was half-maximal at 2.37 µM (EC50).

`CCN(C)Cc1ccn2cc(C(=O)Nc3nc4cc(-c5cccc(C(F)(F)F)c5)ccc4[nH]3)nc2c1` [Example 205, 7-[(Ethyl-methyl-amino)-methyl]-imidazo[1,2-a]pyridine-2-carboxylic acid [5-(3-trifluoromethyl-phenyl)-1H-benzoimidazol-2-yl]-amide] gave an IC50 at BACE-1 enzyme of 0.59 µM. Besides, the EC50 in experiment [1] worked out at 3.2 µM.

At BACE-1 enzyme, `O=C(Nc1nc2cc(-c3cccc(C(F)(F)F)c3)ccc2[nH]1)c1cn2ccc(CNCC(O)c3ccccc3)cc2n1` (centres unmarked) [Example 206, 7-[(2-Hydroxy-2-phenyl-ethylamino)-methyl]-imidazo[1,2-a]pyridine-2-carboxylic acid [5-(3-trifluoromethyl-phenyl)-1H-benzoimidazol-2-yl]-amide] had a concentration for half-maximal inhibition (IC50) of 0.44 µM. In experiment [1], this compound registered an EC50 of 7.43 µM.

In turn, `O=C(Nc1nc2cc(-c3cccc(C(F)(F)F)c3)ccc2[nH]1)c1cn2ccc(CNC(CO)Cc3ccccc3)cc2n1` (centres unmarked) [Example 207, 7-[(1-Benzyl-2-hydroxy-ethylamino)-methyl]-imidazo[1,2-a]pyridine-2-carboxylic acid [5-(3-trifluoromethyl-phenyl)-1H-benzoimidazol-2-yl]-amide] gave an IC50 against BACE-1 enzyme of 0.69 µM. The concentration giving a half-maximal response (EC50) in experiment [1] is 7.65 µM.

At BACE-1 enzyme, `COCCCNCc1ccn2cc(C(=O)Nc3nc4cc(-c5cccc(C(F)(F)F)c5)ccc4[nH]3)nc2c1` [Example 209, 7-[(3-Methoxy-propylamino)-methyl]-imidazo[1,2-a]pyridine-2-carboxylic acid [5-(3-trifluoromethyl-phenyl)-1H-benzoimidazol-2-yl]-amide] displayed a 50% inhibitory concentration (IC50) of 0.22 µM. This compound also had a 50% effective concentration (EC50) in experiment [1] of 4.91 µM.

On BACE-1 enzyme, `O=C(Nc1nc2cc(-c3cccc(C(F)(F)F)c3)ccc2[nH]1)c1cn2c(C3=CCNCC3)cccc2n1` [Example 214, 5-(1,2,3,6-tetrahydropyridin-4-yl)-N-{5-[3-(trifluoromethyl)phenyl]-1H-benzimidazol-2-yl}imidazo[1,2-a]pyridine-2-carboxamide] came in with a half-maximal inhibitory concentration (IC50) of 0.46 µM. This compound returned a half-maximal effective concentration (EC50) in experiment [1] of 5.12 µM.

For `CN1CC=C(c2cccc3nc(C(=O)Nc4nc5cc(-c6cccc(C(F)(F)F)c6)ccc5[nH]4)cn23)CC1` [Example 215, 5-(1-methyl-1,2,3,6-tetrahydropyridin-4-yl)-N-{5-[3-(trifluoromethyl)phenyl]-1H-benzimidazol-2-yl}imidazo[1,2-a]pyridine-2-carboxamide], half-maximal inhibition against BACE-1 enzyme (IC50) required 0.41 µM. The compound also gave an EC50 in experiment [1] of 5.35 µM.

In turn, `CN1CCC(c2cccc3nc(C(=O)Nc4nc5cc(-c6cccc(C(F)(F)F)c6)ccc5[nH]4)cn23)CC1` [Example 219, 5-(1-methylpiperidin-4-yl)-N-{5-[3-(trifluoromethyl)phenyl]-1H-benzimidazol-2-yl}imidazo[1,2-a]pyridine-2-carboxamide] returned an IC50 against BACE-1 enzyme of 0.9 µM. This compound had an EC50 in experiment [1] of 7.48 µM.

In the case of `CNC(=O)c1cccc2nc(C(=O)Nc3nc4cc(-c5cc(F)cc(Cl)c5)ccc4[nH]3)cn12` [Example 226, Imidazo[1,2-a]pyridine-2,5-dicarboxylic acid 2-{[5-(3-chloro-5-fluoro-phenyl)-1H-benzoimidazol-2-yl]-amide} 5-methylamide], the IC50 against BACE-1 enzyme was found to be 0.29 µM. For the same compound, the EC50 in experiment [1] is 2.14 µM.

Regarding `CN(C)C(=O)c1cccc2nc(C(=O)Nc3nc4cc(-c5cc(F)cc(Cl)c5)ccc4[nH]3)cn12` [Example 227, Imidazo[1,2-a]pyridine-2,5-dicarboxylic acid 2-{[5-(3-chloro-5-fluoro-phenyl)-1H-benzoimidazol-2-yl]-amide} 5-dimethylamide], the IC50 on BACE-1 enzyme came out at 0.31 µM. Further, a half-maximal effect in experiment [1] (EC50) was put at 1.65 µM.

Compound `COCCNC(=O)c1cccc2nc(C(=O)Nc3nc4cc(-c5cc(F)cc(Cl)c5)ccc4[nH]3)cn12` [Example 228] registered an IC50 at BACE-1 enzyme of 0.28 µM. The EC50 in experiment [1] turned out to be 1.34 µM.
